Measurements reported in patent US4103004A, “Cardiotonic agent” (University of Hawaii, priority 1977, dated 1978).

Columns and labels:
isolated rat atria = assay: Bioassay for positive inotropic effect on isolated rat atria; format: cell-based
Method: Bioassay for Determining Positive Inotropic Effect
Bioassays of the solutions containing anthopleurin-C are performed on isolated atria of rat hearts. The atrium is separated from the rest of the heart and suspended in an isolated organ bath (20, 25, or 50 ml.) containing Krebs Ringer bicarbonate medium (pH 7.4) of the following composition in distilled deionized water (in mmoles): Na^+, 145; K^+, 6.02; Ca^+2, 1.22; Mg^+2, 1.33; Cl^-, 126; HCO3^-, 25.3; PO4^-3, 1.2; SO4^-2, 1.33; and glucose, 5.5. The temperature of the organ bath is maintained at 30° C., and the Krebs-Ringer medium is continuously aerated with 95% O2 --5% CO2.
The spontaneously beating atrial preparation is connected by a thin silk thread to a force-displacement transducer (Grass model FT.03), and the contractile movements are recorded on a six-channel polygraph Grass Model 7. The preparation is allowed to equilibrate under 750 mg. tension for 60 minutes prior to beginning an assay. After this equilibration, during which the preparations are washed out every 30 minutes, the spontaneous beat rate of the atria remains constant; the change during a 10-minute observation being less than 5 beats/min. The changes in contractile force and rate produced by the test solution containing anthopleurin-C is expressed as a percentage increase or decrease in tension and rhythm, with the period immediately preceding addition of test solution to the tissue bath as the baseline for comparison.

[1] = Solubility in deionized water; format: physicochemical
[2] = Stability at neutral and lower pH; format: physicochemical; conditions: neutral and lower pH values
Isoelectric focusing = format: physicochemical; conditions: doubly purified material
Source text: For the purpose of obtaining electrophoretic properties, the anthopleurin-Cobtained in Example 1, Steps a through d below, was rechromatographed on CM Sephadex C-25, and G-10 according to the process set forth in Example 1, Steps c, and d, respectively. The doubly purified material was subjected to electrophoretic analysis using commercially available pre-cast 12% acrylamide gels and matched buffer systems obtained from Bio·Rad Laboratories, 32nd and Griffin, Richmond, California.
Isoelectric focusing gave the isoelectric point at a pH = 8.0. Disc gel electrophoresis with 12% polyacrylamide gel at pH 3.6 gave an Rf value of 0.49 versus methyl green tracking dye. […] Sodium dodecyl sulfate (SDS) disc gel electrophoresis using a 10% gel indicated a m.w. of about 5,200 after incubation with dithioerythritol, using RNase A and pancreatic trypsin inhibitor (PTI) for comparison. The molecular weight is so low that these values are only approximate.

Question: Which “potency relative to ouabain in positive inotropic effect” value (isolated rat atria; fold as potent as ouabain) does the source give for anthopleurin-C here?
Answer: 200-1000 x

Question: What about the “ED50, positive inotropic effect” value (isolated rat atria; isolated rat atria) of the same substance?
Answer: 3 nM

Question: What about the chronotropic effect (isolated rat atria; isolated rat atria) of the same substance?
Answer: does not show any chronotropic effect

Question: What about the solubility [1] of the same substance?
Answer: very soluble

Question: What about the stability [2] of the same substance?
Answer: relatively stable

Question: What about the isoelectric point (Isoelectric focusing) of the same substance?
Answer: 8.0 pH
